Source: patent publication US10195216B1, “Antimicrobial activity and oil compositions of Costus speciosus (KOEN)” (King Abdulaziz University, priority 2017, dated 2019)

How the values were obtained:
C. tropicalis = experiment: agar disc diffusion, inhibition zone; type: cell-based, Candida tropicalis; conditions: same extract concentrations
Description: (§1) M. gypseum, M. canis, C. albicans and C. tropicalis isolates were obtained from King Faisal Specialist Hospital & Research Centre-Jeddah, Saudi Arabia. They were cultured on sabaroud dextrose agar media (Oxoid CM 41) at 25° C. Antimicrobial activities of essential oils and plant extracts of Indian Costus. About 0.5 g of the testing compound was dissolved in 1.25 ml of a solvent (chloroform, ethanol and methanol) and it was cultured in sabaroud dextrose agar media and blood agar media using the agar disc diffusion method. Each media used were inoculated with 1 ml from a suspension of M. gypseum, M. canis and C. albicans for sabaroud dextrose agar and P. aeruginosa and S. aureus for blood agar. The fungi and yeast were incubated at 25° C. for 8 days, and 48 hours respectively and then tested at 37° C. for 24 hours. After that, the diameter of inhibition zones was measured in millimeters; Baker F J, Breach M R. Medical Microbiological Techniques, Butterworths 1980; Hasenekoglu H. Laboratory techniques for micro fungi. Ataturk University. Erzurum 1990 (both incorporated by reference).

C. albicans = experiment: agar disc diffusion, inhibition zone; type: cell-based, Candida albicans; conditions: same extract concentrations
Description: as §1

M. gypseum = experiment: agar disc diffusion, inhibition zone; type: cell-based, Microsporum gypseum; conditions: diosgenin at 1.25 m
Description: as §1

Structure (SMILES) | antimicrobial activity in words (C. tropicalis) | antimicrobial activity in words (C. albicans) | antimicrobial activity in words (M. gypseum) | melting point [°C]
C[C@@H]1CC[C@@]2(OC1)O[C@H]1C[C@H]3[C@@H]4CC=C5C[C@@H](O)CC[C@]5(C)[C@H]4CC[C@]3(C)[C@H]1[C@@H]2C [Indian Costus diosgenin, (3β,25R)-spirost-5-en-3-ol] | not as effective | not as effective | effective | –
CC1CC[C@@]2(OC1)O[C@H]1C[C@H]3[C@@H]4CC5OC56CCCC[C@]6(C)[C@H]4CC[C@]3(C)[C@H]1[C@@H]2C (stereo partly shown) [diosgenin epoxide, 5,6-Epoxyspirostane] | – | – | – | 195 to 200
